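Dose response: 5 concentrations. Exposure: 48 h. Format: 96-well plates. Endpoint: linear interpolation; highest concentration if not reached. The concentration for 50% growth inhibition is given as GI50.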 Activity calls are given as the source filed them. No stated cut-off is given here; in the data, active = GI50 up to about 1.1 µM and inactive = higher.
Key:
Test in all cases: NCI tumour cell line growth inhibition, 48 h
[1] = tested on: A549
[2] = tested on: COLO 205
[3] = tested on: HCC 2998
[4] = tested on: HCT-116
[5] = tested on: HL-60
[6] = tested on: HT-29
[7] = tested on: K562
[8] = tested on: LOX IMVI
[9] = tested on: MDA-N
[10] = tested on: Malme-3M
[11] = tested on: NCI-H226
[12] = tested on: NCI-H522
[13] = tested on: NCI/ADR-RES
[14] = tested on: RPMI-8226
[15] = tested on: SF-268
[16] = tested on: SK-MEL-28
[17] = tested on: SK-MEL-2
[18] = tested on: SR
[19] = tested on: TK-10
[20] = tested on: UACC-257

SMILES	GI50 [1]	GI50 [2]	GI50 [3]	GI50 [4]	GI50 [5]	GI50 [6]	GI50 [7]	GI50 [8]	GI50 [9]	GI50 [10]	GI50 [11]	GI50 [12]	GI50 [13]	GI50 [14]	GI50 [15]	GI50 [16]	GI50 [17]	GI50 [18]	GI50 [19]	GI50 [20]
COc1ccccc1Nc1nc(N)nc(N)c1N=O	> 100 µM (inactive)	> 100 µM (inactive)	> 100 µM (inactive)	> 100 µM (inactive)	> 100 µM (inactive)	78.2 µM (inactive)	> 100 µM (inactive)	> 100 µM (inactive)	> 100 µM (inactive)	> 100 µM (inactive)	> 100 µM (inactive)	> 100 µM (inactive)	> 100 µM (inactive)	> 100 µM (inactive)	> 100 µM (inactive)	> 100 µM (inactive)	> 100 µM (inactive)	> 100 µM (inactive)	> 100 µM (inactive)	> 100 µM (inactive)
O=C1C(c2c(O)[nH]c3ccc(S(=O)(=O)O)cc23)=Nc2ccccc21	> 100 µM (inactive)	> 100 µM (inactive)	> 100 µM (inactive)	> 100 µM (inactive)	> 100 µM (inactive)	> 100 µM (inactive)	> 100 µM (inactive)	> 100 µM (inactive)	> 100 µM (inactive)	> 100 µM (inactive)	> 100 µM (inactive)	> 100 µM (inactive)	> 100 µM (inactive)	> 100 µM (inactive)	> 100 µM (inactive)	> 100 µM (inactive)	> 100 µM (inactive)	> 100 µM (inactive)	> 100 µM (inactive)	> 100 µM (inactive)
Cc1cccc(Nc2nc3ccccc3nc2NS(=O)(=O)c2ccccc2)c1	14.1 µM (inactive)	16.1 µM (inactive)	0.721 µM (active)	27.4 µM (inactive)	13.8 µM (inactive)	26.6 µM (inactive)	72.1 µM (inactive)	45.4 µM (inactive)	42.9 µM (inactive)	17.1 µM (inactive)	70 µM (inactive)	17.3 µM (inactive)	20 µM (inactive)	7.01 µM (inactive)	44.3 µM (inactive)	38.7 µM (inactive)	14.3 µM (inactive)	25.6 µM (inactive)	22.9 µM (inactive)	26.1 µM (inactive)
NCCCN(CCCN)CCc1cn(C(=O)c2ccccc2)cn1	9.46 µM (inactive)	3.14 µM (inactive)	4.52 µM (inactive)	4.86 µM (inactive)	3.84 µM (inactive)	11.9 µM (inactive)	3.61 µM (inactive)	11.6 µM (inactive)	9.1 µM (inactive)	14.7 µM (inactive)	9.64 µM (inactive)	10 µM (inactive)	14.4 µM (inactive)	2.38 µM (inactive)	7.8 µM (inactive)	13.8 µM (inactive)	9.1 µM (inactive)	2.24 µM (inactive)	5.33 µM (inactive)	9.2 µM (inactive)
O=C1N[C@H]2C(=O)c3c(Cl)sc(Cl)c3[C@H]2O1	19.5 µM (inactive)	6.52 µM (inactive)	1.94 µM (inactive)	3.66 µM (inactive)	2.18 µM (inactive)	2.46 µM (inactive)	1.99 µM (inactive)	2.7 µM (inactive)	5.06 µM (inactive)	14.3 µM (inactive)	32.1 µM (inactive)	3.13 µM (inactive)	20.1 µM (inactive)	13.3 µM (inactive)	4.8 µM (inactive)	6.64 µM (inactive)	19.5 µM (inactive)	2.56 µM (inactive)	29.2 µM (inactive)	6.7 µM (inactive)
CNc1cc2oc(=O)cc(C)c2cc1C	> 100 µM (inactive)	> 100 µM (inactive)	> 100 µM (inactive)	> 100 µM (inactive)	25.4 µM (inactive)	> 100 µM (inactive)	> 100 µM (inactive)	> 100 µM (inactive)	> 100 µM (inactive)	> 100 µM (inactive)	> 100 µM (inactive)	> 100 µM (inactive)	> 100 µM (inactive)	> 100 µM (inactive)	> 100 µM (inactive)	> 100 µM (inactive)	> 100 µM (inactive)	36.4 µM (inactive)	86.3 µM (inactive)	> 100 µM (inactive)
COc1ccc2c(=O)c3ccoc3n(CC=C(C)C)c2c1 [ACROPHYLLINE]	7.14 µM (inactive)	> 85.3 µM (inactive)	> 91.4 µM (inactive)	52.7 µM (inactive)	23.6 µM (inactive)	47.2 µM (inactive)	48.9 µM (inactive)	42.3 µM (inactive)	73.8 µM (inactive)	3.84 µM (inactive)	> 87.9 µM (inactive)	2.65 µM (inactive)	18.8 µM (inactive)	22.4 µM (inactive)	78.2 µM (inactive)	60.5 µM (inactive)	81.7 µM (inactive)	31 µM (inactive)	> 100 µM (inactive)	75.2 µM (inactive)
CCOC(=O)c1c(N2CCOCC2)[nH]c(=O)c(C(c2c(O)c(C(=O)OCC)c(N3CCOCC3)[nH]c2=O)C(C)C)c1O	> 100 µM (inactive)	> 100 µM (inactive)	> 100 µM (inactive)	> 100 µM (inactive)	> 100 µM (inactive)	> 100 µM (inactive)	> 100 µM (inactive)	> 100 µM (inactive)	> 100 µM (inactive)	> 100 µM (inactive)	> 100 µM (inactive)	> 100 µM (inactive)	> 100 µM (inactive)	> 100 µM (inactive)	> 100 µM (inactive)	> 100 µM (inactive)	> 100 µM (inactive)	> 100 µM (inactive)	> 100 µM (inactive)	> 100 µM (inactive)
O=C1OC(c2ccccc2)=N/C1=C\c1ccc(Cl)cc1	> 100 µM (inactive)	> 100 µM (inactive)	> 100 µM (inactive)	> 100 µM (inactive)	> 100 µM (inactive)	> 100 µM (inactive)	> 100 µM (inactive)	> 100 µM (inactive)	> 100 µM (inactive)	–	> 100 µM (inactive)	50.6 µM (inactive)	66.2 µM (inactive)	> 100 µM (inactive)	> 100 µM (inactive)	> 100 µM (inactive)	> 100 µM (inactive)	> 100 µM (inactive)	> 100 µM (inactive)	> 100 µM (inactive)
C=C(C(=O)OC)c1cc2ccccc2n1S(=O)(=O)c1ccccc1	3.05 µM (inactive)	1.95 µM (inactive)	4 µM (inactive)	6.55 µM (inactive)	1.87 µM (inactive)	2.91 µM (inactive)	2.34 µM (inactive)	2.43 µM (inactive)	2.7 µM (inactive)	2.11 µM (inactive)	2.36 µM (inactive)	0.891 µM (active)	3.37 µM (inactive)	1.28 µM (inactive)	1.84 µM (inactive)	2.38 µM (inactive)	2.53 µM (inactive)	0.815 µM (active)	1.57 µM (inactive)	4.86 µM (inactive)
COC(=O)c1ccccc1/C=C1\Cc2cc(C)c(C)cc2C1=O	> 100 µM (inactive)	> 100 µM (inactive)	> 100 µM (inactive)	> 100 µM (inactive)	> 100 µM (inactive)	> 100 µM (inactive)	> 100 µM (inactive)	> 100 µM (inactive)	> 100 µM (inactive)	> 100 µM (inactive)	49 µM (inactive)	73.8 µM (inactive)	> 100 µM (inactive)	> 100 µM (inactive)	40.3 µM (inactive)	> 100 µM (inactive)	14 µM (inactive)	> 100 µM (inactive)	36.9 µM (inactive)	> 100 µM (inactive)
c1ccc(COc2ncccc2C2SCCCS2)cc1	> 100 µM (inactive)	> 100 µM (inactive)	> 100 µM (inactive)	> 100 µM (inactive)	> 10 µM (inactive)	–	96.4 µM (inactive)	82.4 µM (inactive)	> 100 µM (inactive)	> 100 µM (inactive)	> 100 µM (inactive)	> 100 µM (inactive)	> 100 µM (inactive)	> 100 µM (inactive)	> 100 µM (inactive)	> 100 µM (inactive)	> 100 µM (inactive)	70 µM (inactive)	> 100 µM (inactive)	> 100 µM (inactive)
c1ccc(/N=c2/sc3ccccc3s/c2=N/c2ccccc2)cc1	2.54 µM (inactive)	1.92 µM (inactive)	1.84 µM (inactive)	1.72 µM (inactive)	6.41 µM (inactive)	2.08 µM (inactive)	3.78 µM (inactive)	1.7 µM (inactive)	1.61 µM (inactive)	1.86 µM (inactive)	2.88 µM (inactive)	1.56 µM (inactive)	2.67 µM (inactive)	4.57 µM (inactive)	3.12 µM (inactive)	1.81 µM (inactive)	1.86 µM (inactive)	3.35 µM (inactive)	4.08 µM (inactive)	3.72 µM (inactive)
CC1(C)O[C@@H](CO)[C@H]([C@@]23OC[C@H]4OC(C)(C)OC4[C@@H]2OC(C)(C)O3)O1 (stereo partly specified)	> 100 µM (inactive)	> 100 µM (inactive)	> 100 µM (inactive)	> 100 µM (inactive)	> 100 µM (inactive)	> 100 µM (inactive)	> 100 µM (inactive)	> 100 µM (inactive)	> 100 µM (inactive)	> 100 µM (inactive)	> 100 µM (inactive)	> 100 µM (inactive)	> 100 µM (inactive)	> 100 µM (inactive)	> 100 µM (inactive)	> 100 µM (inactive)	> 100 µM (inactive)	> 100 µM (inactive)	–	–
